The record followed here is publication PMC9214036, “Design and Synthesis of Novel PRMT1 Inhibitors and Investigation of Their Effects on the Migration of Cancer Cell” (Frontiers in Chemistry, 2022).

Where a name gives a salt, the structure may show the parent alone.

Data set [1] deals with PRMT1 (Homo sapiens, UniProt Q99873). Put plainly: Radioactive PRMT1 methylation inhibition assay ([3H]-SAM, biotinylated histone H4 peptide). The format is biochemical. The conditions noted are these: for inhibition at 10 µM: compound at 10 μM, read-out: % Inhibition of PRMT1 (at 10 μM); for IC50: radioactive methylation assay, read-out: IC50 (μM) against PRMT1. As for the experimental part: A series of 2,5-substituted furan and 2,4-substituted thiazole derivatives were synthesized and screened for their inhibitory effects on PRMT1 by using the radioactive PRMT1 methylation inhibition assay, which measured the amount of methyl groups that transferred from [^3H]-SAM to a biotinylated histone H4 peptide [ac-[…](Biotin)] (Tables 1–3).
PRMT1, sequence (Q99873 whole entry): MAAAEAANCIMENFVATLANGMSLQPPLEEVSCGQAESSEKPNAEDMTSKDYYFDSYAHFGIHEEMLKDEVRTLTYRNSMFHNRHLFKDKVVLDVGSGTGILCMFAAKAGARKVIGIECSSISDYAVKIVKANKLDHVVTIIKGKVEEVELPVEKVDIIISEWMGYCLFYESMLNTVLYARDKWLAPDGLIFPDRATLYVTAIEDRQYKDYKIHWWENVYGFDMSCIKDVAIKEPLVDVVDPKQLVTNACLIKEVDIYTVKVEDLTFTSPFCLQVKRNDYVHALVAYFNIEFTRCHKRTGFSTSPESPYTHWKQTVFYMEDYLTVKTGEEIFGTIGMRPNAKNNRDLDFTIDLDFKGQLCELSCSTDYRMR
The enzyme inhibitory activities and selectivity were measured by the radioisotope assay and AlphaLISA assay in ShangHai Chempartner Co., Ltd., according to the standard protocol. […] After 250 nL of compound solutions were added to the assay plate, 15 μl of PRMT1 enzyme solution or ×1 assay buffer for negative control was transferred to each well of prepared compound stock plates and the whole system (the final concentration of PRMT1 was 0.5 nM or 2 nM in the system) was incubated for 15 min at room temperature. […] Afterward, the reaction was stopped with the addition of 5 μl cold SAM solution to each well. Then, 25 μl volume per well was transferred to a Flashplate from the assay plate and incubated for a minimum of 1 h at room temperature. Finally, the Flashplate was washed with dH2O and 0.1% Tween-20 three times and then the reading plate in Microbeta using the program ^3H-Flashplate. The data were analyzed in GraphPad Prism 5 to obtain IC50 values.

Broadly, the melting point is the temperature of the solid-liquid transition. Turning to `CNCCN(C)Cc1ccc(-c2ccc(C(N)=O)cc2)o1` (as salt: hydrochloride) [Compound 1a, N′-[5-(4-Formamide-phen-1-yl)-furan-2-yl-methyl]-N,N′-dimethylethylenediamine Hydrochloride], the melting point lay within 212.2 to 214.6 °C. In turn, `CNCCN(C)Cc1ccc(-c2ccc(C(=O)NN)cc2)o1` (as salt: hydrochloride) [Compound 1b, N′-[5-(4-Formylhydrazide-phen-1-yl)-furan-2-yl-methyl]-N,N′-dimethylethylenediamine Hydrochloride] displayed a melting point of 246.2 to 246.9 °C. In turn, `CNCCN(C)Cc1ccc(-c2ccc(C(N)=NO)cc2)o1` (as salt: hydrochloride) [Compound 1e, N′-[5-(4-N-Hydroxyamidino-phen-1-yl)-furan-2-yl-meth-yl]-N,N′-dimethylethylenediamine Hydrochloride] had a melting point of 231.2 to 232.8 °C.

Consider `CNCCN(C)Cc1ccc(-c2ccc(C(N)=NO)c(F)c2)o1` (as salt: hydrochloride) [Compound 1f, N′-[5-(3-Fluoro-4-N-hydroxyamidino-phen-1-yl)-furan-2-yl-methyl]-N,N′-dimethylethylenediamine Hydrochloride], for which the melting point fell in the range of 216.8 to 218.6 °C.

In turn, `CNCCN(C)Cc1ccc(-c2cccc(C(N)=NO)c2)o1` (as salt: hydrochloride) [Compound 1g, N′-[5-(3-N-Hydroxyamidino-phen-1-yl)-furan-2-yl-methyl]-N,N′-dimethylethylenediamine Hydrochloride] registered a melting point of 60.8 to 63.2 °C. Take `CNCCN(C)Cc1ccc(-c2ccc(C(=N)N)c(F)c2)o1` (as salt: hydrochloride) [Compound 1i, N′-[5-(3-Fluoro-4-amidino-phen-1-yl)-furan-2-yl-methyl]-N,N′-dimethylethylenediamine Hydrochloride]: the melting point fell in the range of 156.5 to 159.2 °C. The same measure, in the same setting: the figure for `CNCCN(C)Cc1ccc(-c2ccc(Cl)c(C(=N)N)c2)o1` (as salt: hydrochloride) [Compound 1k, N′-[5-(3-Amidino-4-chloro-phen-1-yl)-furan-2-yl-methyl]-N,N′-dimethylethylenediamine Hydrochloride] is 223 to 225 °C. As a reminder, the inhibition is the drop in the measured response relative to a control, in per cent. For `CNCCN(C)Cc1ccc(-c2ccc(C(N)=O)cc2)o1` [Compound 1a, N′-[5-(4-Formamide-phen-1-yl)-furan-2-yl-methyl]-N,N′-dimethylethylenediamine Hydrochloride], the inhibition at 10 µM in data set [1] turned out to be 10.6 ± 2.24%. Regarding `CNCCN(C)Cc1ccc(-c2ccc(C(=O)NN)cc2)o1` [Compound 1b, N′-[5-(4-Formylhydrazide-phen-1-yl)-furan-2-yl-methyl]-N,N′-dimethylethylenediamine Hydrochloride], in data set [1], the inhibition at 10 µM stood at 48 ± 0.02%. A word on the IC50: it is the midpoint of a concentration-inhibition curve. Regarding `CNCCN(C)Cc1ccc(-c2ccc(N)cc2)o1.Cl` [Compound 1c, N′-[5-(4-Aminophenyl)-furan-2-yl-methyl]-N,N′-dimeth-ylethylenediamine Hydrochloride], the melting point fell in the range of 60.2 to 61.1 °C. In addition, in data set [1], the inhibition at 10 µM came out at 50 ± 0.18% and the IC50 was 21.4 ± 12.8 µM. As for `CNCCN(C)Cc1ccc(-c2cccc(N)c2)o1.Cl` [Compound 1d, N′-[5-(3-Aminophenyl)-furan-2-yl-methyl]-N,N′-dimethylethylenediamine Hydrochloride], the melting point fell in the range of 64.2 to 65.2 °C. The inhibition at 10 µM in data set [1] is 35.99 ± 0.09%.

Consider `CNCCN(C)Cc1ccc(-c2ccc(C(N)=NO)cc2)o1` [Compound 1e, N′-[5-(4-N-Hydroxyamidino-phen-1-yl)-furan-2-yl-meth-yl]-N,N′-dimethylethylenediamine Hydrochloride], for which, in data set [1], the inhibition at 10 µM was determined as 32%. With `CNCCN(C)Cc1ccc(-c2ccc(C(N)=NO)c(F)c2)o1` [Compound 1f, N′-[5-(3-Fluoro-4-N-hydroxyamidino-phen-1-yl)-furan-2-yl-methyl]-N,N′-dimethylethylenediamine Hydrochloride], in data set [1], the inhibition at 10 µM was 35.97 ± 0.2%. Regarding `CNCCN(C)Cc1ccc(-c2cccc(C(N)=NO)c2)o1` [Compound 1g, N′-[5-(3-N-Hydroxyamidino-phen-1-yl)-furan-2-yl-methyl]-N,N′-dimethylethylenediamine Hydrochloride], the inhibition at 10 µM in data set [1] turned out to be 39.98 ± 0.19%. In the case of `CNCCN(C)Cc1ccc(-c2ccc(C(=N)N)c(F)c2)o1` [Compound 1i, N′-[5-(3-Fluoro-4-amidino-phen-1-yl)-furan-2-yl-methyl]-N,N′-dimethylethylenediamine Hydrochloride], in data set [1], the inhibition at 10 µM was found to be 68 ± 0.02% and the IC50 turned out to be 4.42 ± 0.63 µM. Take `CNCCN(C)Cc1ccc(-c2ccc(Cl)c(C(=N)N)c2)o1` [Compound 1k, N′-[5-(3-Amidino-4-chloro-phen-1-yl)-furan-2-yl-methyl]-N,N′-dimethylethylenediamine Hydrochloride]: in data set [1], the inhibition at 10 µM was found to be 76.5 ± 0.01% and the IC50 is 2.5 ± 0.91 µM. In turn, `CNCCN(C)Cc1ccc(-c2ccc(C(=N)N)nc2)o1.Cl` [Compound 1l, N′-[5-(2-Amidino-5-pyridyl)furan-2-yl-methyl]-N,N′-dimethylethylenediamine Hydrochloride] came in with a melting point of 75.8 to 78.2 °C. In data set [1], the inhibition at 10 µM was found to be 92.12 ± 0.28% and the IC50 stood at 1.29 ± 0.12 µM. The “PRMT1 IC50 compared with DB75” value in data set [1] (fold weaker than DB75) is “four times weaker than DB75”. Moreover, in data set [1] (fold weaker than SAH), the “PRMT1 IC50 compared with SAH” value is recorded as “about two times weaker than SAH”. For `CNCCN(Cc1ccc(-c2ccc(C(=N)N)nc2)o1)C1CC1.Cl` [Compound 1m, N-Methyl-N′-[5-(2-amidino-5-pyridyl)furan-2-yl-methyl]-N′-cyclopropylethylenediamine Hydrochloride], the melting point was in the range of 95.9 to 98.3 °C. For the same molecule, in data set [1], the inhibition at 10 µM is 48 ± 0.02% and the IC50 came out at 10.8 ± 1.3 µM. In turn, `Cl.N=C(N)c1ccc(-c2ccc(CN3CCNCC3)o2)cn1` [Compound 1n, N′-[5-(2-Amidino-5-pyridyl)furan-2-yl-methyl]-piperazine Hydrochloride] yielded a melting point of 197.7 to 199.3 °C. In data set [1], the inhibition at 10 µM turned out to be 73.51 ± 0.06% and the IC50 was determined as 4.68 ± 0.26 µM.

The molecule `CN(CCN)Cc1ccc(-c2ccc(C(=N)N)nc2)o1.Cl` [Compound 1o, N′-[5-(2-Amidino-5-pyridyl)furan-2-yl-methyl]-N′-methylethylenediamine Hydrochloride] showed a melting point of 223.4 to 224.8 °C. In addition, in data set [1], the inhibition at 10 µM was 89.02 ± 0.05% and the IC50 turned out to be 2.41 ± 0.18 µM.

For `N=C(N)c1ccc(-c2ccc(-c3ccc(C(=N)N)cc3)o2)cc1` [DB75, furamidine, reference compound], in data set [1], the inhibition at 10 µM was 98.13 ± 0.27% and the IC50 turned out to be 0.31 ± 0.04 µM.
